Experimental data reported in US7700624B2, “3-aminocyclopentanecrboxamides as modulators of chemokine receptors” (Incyte Corporation, priority 2005, dated 2010).

target: T1, CCR2 (Homo sapiens, UniProt P41597); experiment: CCR2 binding assay: 125I-labeled MCP-1 binding to human PBMCs; settings: inhibition of specific binding of 0.1 to 0.2 nM 125I-labeled MCP-1 to human PBMCs, 30 min at room temperature
T1 construct: Peripheral Blood Mononuclear Cells (PBMCs) prepared from normal human whole blood via density gradient centrifugation; endogenous in cells; host or cells: human PBMCs from normal whole blood
T1 sequence (P41597 1-360 isoform P41597-2): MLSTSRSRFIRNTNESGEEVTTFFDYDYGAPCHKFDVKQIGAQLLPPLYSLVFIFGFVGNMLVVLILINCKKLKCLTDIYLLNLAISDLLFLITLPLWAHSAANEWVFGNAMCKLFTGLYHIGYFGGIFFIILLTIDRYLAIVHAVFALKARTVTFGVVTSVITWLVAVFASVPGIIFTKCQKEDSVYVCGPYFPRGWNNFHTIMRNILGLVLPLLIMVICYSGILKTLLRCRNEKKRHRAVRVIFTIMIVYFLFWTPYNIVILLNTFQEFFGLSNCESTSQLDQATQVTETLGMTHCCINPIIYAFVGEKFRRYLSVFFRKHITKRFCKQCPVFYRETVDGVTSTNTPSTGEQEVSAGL
Text: The CCR2 antagonist activity of compounds of the invention can be reported as the inhibitor concentration required for 50% inhibition (IC50 values) of specific binding in receptor binding assays using ^125I-labeled MCP-1, as ligand, and Peripheral Blood Mononuclear Cells (PBMCs) prepared from normal human whole blood via density gradient centrifugation. Specific binding is preferably defined as the total binding (e.g., total cpm on filters) minus the non-specific binding. Non-specific binding is defined as the amount of cpm still detected in the presence of excess unlabeled competitor (e.g., MCP-1).
Human PBMCs are used to test compounds of the invention in a binding assay. For example, 200,000 to 500,000 cells are incubated with 0.1 to 0.2 nM ^125I-labeled MCP-1, with or without unlabeled competitor (10 nM MCP-1) or various concentrations of compounds to be tested. ^125I-labeled MCP-1, are prepared by suitable methods or purchased from commercial vendors (Perkin Elmer, Boston Mass.). The binding reactions are performed in 50 to 250 μL of a binding buffer consisting of […] pH 7.2, and 0.1% BSA (bovine serum albumin), for 30 min at room temperature. The binding reactions are terminated by harvesting the membranes by rapid filtration through glass fiber filters (Perkin Elmer) which is presoaked in 0.3% polyethyleneimine or Phosphate Buffered Saline (PBS). The filters were rinsed with approximately 600 μL of binding buffer containing 0.5 M NaCl or PBS, then dried, and the amount of bound radioactivity is determined by counting on a Gamma Counter (Perkin Elmer).

| IC50 [nM] | SMILES |
| --- | --- |
| 736 | COc1ccc(CN[C@@H]2CC[C@@](C(=O)N3CCN(c4cc(C(F)(F)F)ccn4)CC3)(C(C)C)C2)cc1O [Example 29, 5-({[(1R,3S)-3-isopropyl-3-({4-[4-(trifluoromethyl)pyridin-2-yl]piperazin-1-yl}carbonyl)cyclopentyl]amino}methyl)-2-methoxyphenol] |
| 364 | CC(C)[C@]1(C(=O)N2CCN(c3cc(C(F)(F)F)ccn3)CC2)CC[C@@H](NCc2ccc3c(c2)OCC(=O)N3)C1 [Example 30, 6-({[(1R,3S)-3-isopropyl-3-({4-[4-(trifluoromethyl)pyridin-2-yl]piperazin-1-yl}carbonyl)cyclopentyl]amino}methyl)-2H-14-benzoxazin-3(4H)-one] |
| 334 | COc1cc(CN[C@@H]2CC[C@@](C(=O)N3CCN(c4cc(C(F)(F)F)ccn4)CC3)(C(C)C)C2)ccc1C [Example 31, (1R,3S)-3-isopropyl-N-(3-methoxy-4-methylbenzyl)-3-({4-[4-(trifluoromethyl)pyridin-2-yl]piperazin-1-yl}carbonyl)cyclopentanamine] |
